In patent US20220154404A1, “Active Materials, Surfaces, Surface Treatments And Methods For Packaging Materials, Boxes, And Containers Using Photosensitizers For Pathogen Reduction” (Mi2 Holdings LLC, priority 2020, published 2022):
Where two headings read alike, the source gives them in different places.

Legend:
[1] = cited from earlier work; for Epsilon: ideal solvent
[2] = Absorption characteristics of photosensitizers with peak absorptions in visible light (Lambda Max, Epsilon); assay type: physicochemical; conditions: determined in water
Excerpt: Examples of photosensitizers having peak absorptions in visible light and their absorption characteristics is: […]

[3] = ideal solvent; cited from earlier work
[4] = cited from earlier work

## CCNc1cc2[s+]c3cc(NCC)c(C)cc3nc2cc1C.[Cl-] [New MB]
[1]; first or only peak
  Lambda Max: 630
[2]; first or only peak
  Epsilon: 64,000

## C=Cc1c(C)c2cc3nc(c(CC(=O)O)c4[nH]c(cc5nc(cc1[nH]2)C(C)=C5CC)c(C)c4C(=O)O)[C@@H](CCC(=O)O)[C@@H]3C [Chlorin e6, chlorin e6]
[3]
  Singlet Oxygen QY: 0.65
[1]; first or only peak
  Lambda Max: 400
[1]; second peak (after the slash)
  Lambda Max: 650
[2]; first or only peak
  Epsilon: 150,000
[2]; second peak (after the slash)
  Epsilon: 30,000

## C=Cc1c(C)c2cc3nc(c(CC(=O)N[C@@H](CC(=O)O)C(=O)O)c4[nH]c(cc5nc(cc1[nH]2)C(C)=C5CC)c(C)c4C(=O)O)[C@@H](CCC(=O)O)[C@@H]3C [Talaporfin (LS11, MACE, NPs6), Talaporfin]
[3]
  Singlet Oxygen QY: 0.77
[1]; first or only peak
  Lambda Max: 400
  Epsilon: 180,000
[1]; second peak (after the slash)
  Epsilon: 40,000
  Lambda Max: 654

## O=C([O-])c1c(Cl)c(Cl)c(Cl)c(Cl)c1-c1c2cc(I)c(=O)c(I)c-2oc2c(I)c([O-])c(I)cc12.[Na+].[Na+] [Rose Bengal, Rose Bengal (CAS #632-69-9)]
[3]
  Singlet Oxygen QY: 0.76
[1]; first or only peak
  Lambda Max: 562
  Epsilon: 90,000

## Verteporfin
[1]; first or only peak
  Lambda Max: 435
  Epsilon: ~70,000

## IRDye 700DX HHS Ester [IR700]
[4]
  water solubility: good solubility

## CN(C)c1ccc2nc3ccc(=[N+](C)C)cc-3sc2c1 [Methylene Blue, methylene blue (CAS #61-73-4)]
[3]
  Singlet Oxygen QY: 0.52
[1]; first or only peak
  Lambda Max: 665
[2]; first or only peak
  Epsilon: 48,000

## O=C([O-])c1ccccc1-c1c2cc(Br)c(=O)c(Br)c-2oc2c(Br)c([O-])c(Br)cc12.[Na+].[Na+] [Eosin Y]
[1]; first or only peak
  Lambda Max: 525
  Epsilon: 112,000

## O.O=C([O-])c1ccccc1-c1c2cc(I)c(=O)c(I)c-2oc2c(I)c([O-])c(I)cc12.[Na+].[Na+] [Erythrosin B]
[3]
  Singlet Oxygen QY: 0.63
[1]; first or only peak
  Lambda Max: 530
  Epsilon: 82,000
